Data as given in patent US9078872B2, “Antioxidant composition” (Symrise AG, priority 2013, dated 2015).

Experiment: ORAC (OARC-fluorescein) determination of the antioxidant effect, Trolox as standard
Settings: OARC-fluorescein method; calibration curve with Trolox as standard
Procedure: The antioxidant effect and the synergy between the individual components were determined according to the OARC-fluorescein method, in which inhibition time and the inhibition degree are reflected in a measured value. The measurements were performed by means of the device Synergy H4 by BioTek Inc., the calculated values were taken from a calibration curve with Trolox used as a standard. The method is described in more detail, for example, in the publications by Prior et. al., J. Agric Food. Chem. 50, pp. 4437-4444 […] and Dovalos et. al, ibid 52, pp. […] (2004). These publications are incorporated into this patent application by reference with regard to the description of the measuring method.

| SMILES | ORAC value, Measured |
| --- | --- |
| COc1cc(C=CC(=O)O)cc(OC)c1O (stereo in doubt) [Example V2, Sinapinic acid] | 11.459 |
| O=C(O)/C=C/c1ccc(O)c(O)c1 [Example V1, Caffeic acid] | 21.587 |
